Experimental data taken from BindingDB's records for doi:10.1021/bi900167q (Duke University, 2009).

target: T1, UDP-3-O-acyl-N-acetylglucosamine deacetylase (Escherichia coli (strain K12), UniProt P0A725); assay: LpxC Assay
T1 sequence (P0A725 whole entry): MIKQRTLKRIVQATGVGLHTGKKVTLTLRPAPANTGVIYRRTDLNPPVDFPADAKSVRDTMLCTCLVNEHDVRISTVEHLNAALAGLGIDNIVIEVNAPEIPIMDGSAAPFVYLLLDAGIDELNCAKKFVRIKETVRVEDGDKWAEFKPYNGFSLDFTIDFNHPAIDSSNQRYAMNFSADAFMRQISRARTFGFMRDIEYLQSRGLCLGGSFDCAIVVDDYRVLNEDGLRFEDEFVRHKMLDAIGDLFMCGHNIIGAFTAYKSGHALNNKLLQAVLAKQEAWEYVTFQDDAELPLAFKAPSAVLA
From the text: Inhibition assay using E. coli LpxC.

| Compound | IC50 |
| --- | --- |
| O=c1ccn(C2OC(CO/N=C/c3ccc(O)c(O)c3O)C(O)C2O)c(=O)[nH]1 (stereo not given) [1-68A analogue] | 27 µM |
| O=c1ccn(C2OC(CO/N=C/c3ccc(O)c(O)c3)C(O)C2O)c(=O)[nH]1 (stereo not given) [1-68Aa analogue] | 30 µM |
| O=C(CO/N=C/c1ccc(O)c(O)c1O)NCC1OC(n2ccc(=O)[nH]c2=O)C(O)C1O (stereo not given) [2-68A analogue] | 120 µM |

The remaining lines, values ahead:

| IC50 | Compound |
| --- | --- |
| > 500 µM | O=c1ccn(C2OC(CO/N=C/c3cccc(O)c3O)C(O)C2O)c(=O)[nH]1 (stereo not given) [1-68Ac analogue] |
| > 500 µM | O=c1ccn(C2OC(CO/N=C/c3cc(O)c(O)c(O)c3)C(O)C2O)c(=O)[nH]1 (stereo not given) [1-68Ad analogue] |
